Assay results: patent publication US20250333371A1, “COMPOUNDS” (PSYLO PTY LTD, priority 2022, published 2025)
Several values for one entry are separate records, joined by “and”; a condition that tells them apart may be missing. Identical values can stand only once. Like-named read-outs stand apart in the source and are kept apart here.

Experiments:
5-HT2A = target: T1, 5-HT2A (Homo sapiens, UniProt P28223); test: FLIPR Ca2+ flux functional assay, 5-HT2A receptor (stably transfected HEK293); format: cell-based; conditions: agonist activity, Ca2+ flux, HEK293
T1 construct: host or cells: HEK293
T1 sequence (P28223 whole entry): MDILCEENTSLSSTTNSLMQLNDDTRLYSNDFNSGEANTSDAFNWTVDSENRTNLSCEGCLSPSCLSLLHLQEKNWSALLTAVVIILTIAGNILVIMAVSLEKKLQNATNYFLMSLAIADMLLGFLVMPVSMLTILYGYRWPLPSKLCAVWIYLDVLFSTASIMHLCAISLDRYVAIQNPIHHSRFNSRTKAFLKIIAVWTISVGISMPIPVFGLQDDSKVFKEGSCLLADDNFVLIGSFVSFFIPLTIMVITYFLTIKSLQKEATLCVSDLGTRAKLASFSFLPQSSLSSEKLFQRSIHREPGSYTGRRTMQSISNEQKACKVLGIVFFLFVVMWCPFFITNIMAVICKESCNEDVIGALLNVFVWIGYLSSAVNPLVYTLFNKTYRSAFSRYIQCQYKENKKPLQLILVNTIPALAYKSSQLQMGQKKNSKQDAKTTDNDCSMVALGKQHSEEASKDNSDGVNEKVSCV

5-HT2C = target: T2, 5-HT2C (Homo sapiens, UniProt P28335); test: FLIPR Ca2+ flux functional assay, 5-HT2C receptor (stably transfected HEK293); format: cell-based; conditions: agonist activity, Ca2+ flux, HEK293
T2 construct: host or cells: HEK293
T2 sequence (P28335 33-458): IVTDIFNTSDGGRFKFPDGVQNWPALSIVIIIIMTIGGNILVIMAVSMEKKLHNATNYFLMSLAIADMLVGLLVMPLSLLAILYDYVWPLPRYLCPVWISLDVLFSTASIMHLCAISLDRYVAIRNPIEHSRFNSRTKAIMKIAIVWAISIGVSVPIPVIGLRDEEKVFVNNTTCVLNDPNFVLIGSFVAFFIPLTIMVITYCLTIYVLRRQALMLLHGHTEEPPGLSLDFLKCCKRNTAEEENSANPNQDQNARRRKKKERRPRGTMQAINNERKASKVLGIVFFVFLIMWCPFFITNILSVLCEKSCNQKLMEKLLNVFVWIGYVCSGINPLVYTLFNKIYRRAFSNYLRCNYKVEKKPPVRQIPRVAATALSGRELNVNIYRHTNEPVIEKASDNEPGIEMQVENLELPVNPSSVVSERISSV
In short: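 Stably transfected HEK293 (5-HT2A, 5-HT2C) or CHO-K1 (5-HT2B) cells loaded with Fluo-4 Direct and 2.5 mM final probenecid for 50 min at 37 °C. Compounds given as 10-point 3-fold dilutions; calcium fluorescence read on FLIPR Tetra after addition.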

[1] = In vivo pharmacokinetics: plasma and brain exposure after IP administration; design: species or system male C57BL/6 mice; conditions: for B:P Ratio Individual / Plasma Concentration (μM) Individual / concentration at 0.5 h / concentration at 0.083 h / concentration at 4 h / Kp at 0.083 h / Kp at 0.5 h / Kp at 4 h / Kp: 10 mg/kg; for Kp at 0.083 h / Kp at 0.5 h / Kp at 4 h / Kp: brain/plasma
Experimental: The study was conducted using established procedures in accordance with the Australian Code of Practice for the Care and Use of Animals for Scientific Purposes, and the study protocols were reviewed and approved by the Monash Institute of Pharmaceutical Sciences Animal Ethics Committee.
The systemic exposure of selected examples was studied in non-fasted male C57BL/6 mice weighing between 22.3-26.2 g. Mice had access to food and water ad libitum throughout the pre- and post-dose sampling period.
On the day of dosing, the formulation of each compound was prepared by dissolving solid compound in phosphate buffer saline (50 mM) using vortexing, creating colourless solutions (pH 6.1-6.3) for each compound.
Compounds were dosed to mice by IP injection (10 mL/kg dose volume via a 27G needle; n=9 mice per compound) and blood samples were collected at 5 and 30 min; 1, 2 and 4 h post-dose (n=3 mice per time point for each compound). A maximum of three blood samples were obtained from each mouse, with plasma samples being taken via submandibular bleed (approximately 120 μL). Once collected, blood samples were centrifuged immediately, supernatant plasma was removed, and stored at −80° C. until analysis by LCMS. In addition, at the 5 and 30 min and 4 h post-dose time points, the whole brain was rapidly removed from the carcass soon after the blood collection. The whole brains were blotted to remove excess blood, placed into pre-weighed polypropylene vials, and weighed. The brains were snap frozen in dry ice and subsequently stored frozen (−80° C.) until analysis.
Concentrations of test compound in plasma and tissue samples were determined using an LCMS/MS method validated for linearity, accuracy, precision, matrix factor and recovery (Table 2).
Test compound standard solutions were diluted from a concentrated stock solution (1 mg/mL in DMSO) using 50% acetonitrile in water (v/v) and a calibration curve was prepared in a matched matrix to the test samples.
Plasma: The plasma calibration curve was prepared by spiking aliquots of blank mouse plasma (25 μL) with test compound standard solutions (5 μL) and internal standard solution (5 μL of diazepam, 5 μg/mL in 50% acetonitrile in water). Test plasma samples (25 μL) were thawed, mixed, and then spiked with internal standard solution (5 μL). Plasma protein precipitation was performed by addition of acetonitrile (3-fold volume ratio) and thorough vortex mixing. Samples were centrifuged (RCF=9391×g) for 3 minutes and the supernatant (90 μL) was collected for analysis.
Tissue: Pre-weighed tissue samples (brain) were homogenised using a glass rod in buffer containing an EDTA/potassium fluoride solution (0.1 M/4 mg/mL) as a stabilisation cocktail to minimise the potential for ex vivo degradation (3 mL cocktail/g tissue). The tissue homogenate was briefly centrifuged (RCF=79×g) for 10 seconds to separate the foam layer before transferring an aliquot of the tissue homogenate (200 μL) to a fresh Eppendorf tube for sample extraction. Calibration standards were prepared by spiking blank brain homogenate (200 μL) with the solution standards (10 μL) and the internal standard (10 μL). Study samples were similarly prepared, except that acetonitrile (10 μL) was added instead of solution standards to maintain the same volume. Protein precipitation was carried out by the addition of a 3-fold volume of acetonitrile, followed by vortex mixing and centrifugation (RCF=9391×g) for 3 min to recover the supernatant for analysis.
Replicate analysis: Triplicate analytical replicate (ARs) samples were prepared similarly to the standards for each sample type at three concentrations (50, 500 and 2,000 ng/mL) and repeat injections of these ARs were included throughout the analytical run to assess assay performance. The extraction of the test compound from the standards and ARs were conducted as described above. […]

[2] = IP 10 mg/kg, 0.083 h, individual mice
[3] = IP 10 mg/kg, 0.5 h, individual mice
[4] = IP 10 mg/kg, 4 h, individual mice
[5] = male, C57BL/6, mouse, plasma, IP 10 mg/kg

Question: Which results are given for `COc1ccc2cccc(CCN(C)C3CC3)c2c1` [Example I-15, N-(2-(7-methoxynaphthalen-1-yl)ethyl)-N-methylcyclopropanamine]?
Answer: Emax (5-HT2A): 70%; EC50 (5-HT2A; read-out: 5-HT2A EC50): 133 nM; Emax (5-HT2C): 65%; EC50 (5-HT2C; read-out: 5-HT2C EC50): 292 nM; Brain AUC0-4 h ([1]; IP 10 mg/kg): 13.8 µM·h; B:P Ratio Individual [1, 2]: 6.9 and 6.7; Plasma Concentration (μM) Individual [1, 2]: 1.38 µM and 1.48 µM; concentration at 0.5 h ([1]; IP 10 mg/kg, 0.083 h, individual mice, read-out: Brain Parenchyma Concentration (μM) Individual): 9.59 µM and 9.89 µM; B:P Ratio Individual [1, 3]: 8.2 and 8.1; Plasma Concentration (μM) Individual [1, 3]: 0.932 µM and 0.820 µM; concentration at 0.5 h ([1]; IP 10 mg/kg, 0.5 h, individual mice, read-out: Brain Parenchyma Concentration (μM) Individual): 7.6 µM and 6.64 µM; B:P Ratio Individual [1, 4]: 9.3 and 7.5; Plasma Concentration (μM) Individual [1, 4]: 0.0701 µM and 0.151 µM and 0.101 µM; concentration at 0.5 h ([1]; IP 10 mg/kg, 4 h, individual mice, read-out: Brain Parenchyma Concentration (μM) Individual): 0.553 µM and 1.41 µM and 0.755 µM; concentration at 0.083 h ([1]; male, C57BL/6, mouse, brain, ip, 0.083 h, individual mice, read-out: Brain Parenchyma Concentration (μM) Individual): 16.9 µM; concentration at 0.083 h ([1]; male, C57BL/6, mouse, brain, ip, 0.083 h, n = 3, read-out: Brain Parenchyma Concentration (μM) Mean ± SD): 12.1 ± 4.14 µM; concentration at 0.5 h ([1]; male, C57BL/6, mouse, brain, ip, 0.5 h, individual mice, read-out: Brain Parenchyma Concentration (μM) Individual): 4.3 µM; concentration at 0.5 h ([1]; male, C57BL/6, mouse, brain, ip, 0.5 h, n = 3, read-out: Brain Parenchyma Concentration (μM) Mean ± SD): 6.18 ± 1.7 µM; concentration at 4 h ([1]; male, C57BL/6, mouse, brain, ip, 4 h, n = 3, read-out: Brain Parenchyma Concentration (μM) Mean ± SD): 0.905 ± 0.446 µM; Kp at 0.083 h ([1]; male, C57BL/6, mouse, ip, 0.083 h, individual mice, read-out: B:P Ratio Individual): 7.3; Kp at 0.083 h ([1]; male, C57BL/6, mouse, ip, 0.083 h, n = 3, read-out: B:P Ratio Mean ± SD): 7 ± 0.33; Kp at 0.5 h ([1]; male, C57BL/6, mouse, ip, 0.5 h, individual mice, read-out: B:P Ratio Individual): 6; Kp at 0.5 h ([1]; male, C57BL/6, mouse, ip, 0.5 h, n = 3, read-out: B:P Ratio Mean ± SD): 7.4 ± 1.2; Kp at 4 h ([1]; male, C57BL/6, mouse, ip, 4 h, individual mice, read-out: B:P Ratio Individual): 7.9; Kp at 4 h ([1]; male, C57BL/6, mouse, ip, 4 h, n = 3, read-out: B:P Ratio Mean ± SD): 8.2 ± 1; Kp ([1]; male, C57BL/6, mouse, ip, (fu, brain * AUCbrain, 0-4 h)/(fu, plasma * AUCplasma, 0-4 h), read-out: (Unbound) time-averaged B:P): 2; Kp ([1]; male, C57BL/6, mouse, ip, AUCbrain, 0-4 h/AUCplasma, 0-4 h, read-out: (Total) time-averaged B:P): 8.1; concentration at 0.083 h ([1]; male, C57BL/6, mouse, plasma, ip, 0.083 h, individual mice, read-out: Plasma Concentration (μM) Individual): 2.3 µM; concentration at 0.083 h ([1]; male, C57BL/6, mouse, plasma, ip, 0.083 h, n = 3, read-out: Plasma Concentration (μM) Mean ± SD): 1.72 ± 0.506 µM; concentration at 0.5 h ([1]; male, C57BL/6, mouse, plasma, ip, 0.5 h, individual mice, read-out: Plasma Concentration (μM) Individual): 0.718 µM; concentration at 0.5 h ([1]; male, C57BL/6, mouse, plasma, ip, 0.5 h, n = 3, read-out: Plasma Concentration (μM) Mean ± SD): 0.823 ± 0.107 µM; concentration at 4 h ([1]; male, C57BL/6, mouse, plasma, ip, 4 h, n = 3, read-out: Plasma Concentration (μM) Mean ± SD): 0.107 ± 0.0406 µM; Cmax [1, 5]: 1720 nM; Tmax [1, 5]: 5 min; AUC(0-t) ([1]; male, C57BL/6, mouse, plasma, IP 10 mg/kg, read-out: Plasma AUC0-4 h): 1.71 µM·h; AUC(0-inf) ([1]; male, C57BL/6, mouse, plasma, IP 10 mg/kg, read-out: Plasma AUC0-inf): 1.9 µM·h; half-life ([1]; male, C57BL/6, mouse, IP 10 mg/kg, plasma, read-out: Apparent t1/2 (converted)): 72 min
